What was measured:
[1] = test system: hypertriglyceridemia and hypercholesterolemia-induced animals; assay: HDL cholesterol concentrations in blood of hypertriglyceridemia and hypercholesterolemia-induced animals (Example 2); assay type: in vivo, New Zealand White rabbits; conditions: 4 weeks oral once per day, Compound of Formula 1 20 mg/kg/day and/or olmesartan medoxomil 3 mg/kg/day; for average HDL cholesterol concentrations, 4 weeks: n=4-7; for Percent increase of HDL cholesterol level (%): in comparison with the G2 group
Excerpt: (§1) Male New Zealand White rabbits were used as a test animal. All animals, except for the G1 group animals (negative control group), were fed with an irradiation-sterilized hypertriglyceridemia and hypercholesterolemia diet, i.e., DYET #621082 (Purina #5321 chow with 0.5% cholesterol, 14% coconut oil & 2% Maltose Dextrin, Dyets, Inc., Bethlehem, Pa. 18017), which was purchased from Saeronbio Inc. In order to induce hypertriglyceridemia and hypercholesterolemia, the animals were supplied with the diet for more than 4 weeks. After collecting the blood samples from the animals, serum biochemical analyses were performed thereon. Animals showing significant changes in total cholesterol levels and triglyceride levels were selected, in comparison with the non-treated control group. The selected animals were divided into 4 groups on the basis of the total cholesterol levels and triglyceride levels, thereby all the groups having substantially equal average values in the total cholesterol levels and triglyceride levels. The test materials were dissolved in saline containing 0.5% carboxymethylcellulose sodium and 1% Tween 80 and then administered directly into the stomach using an oral syringe adapted with a latex catheter, once per day for 4 weeks. The test groups are as in the following Table 3.
The blood samples were collected through the jugular vein, from the animals at the day initiating the administration of the test material(s) (i.e., at the time of group-dividing, 0 week), and from the animals (which were fasted for 12 to 16 hours before collecting the blood) at 4 weeks after initiating the administration of the test material(s) (n=4-7).

[2] = test system: hypertriglyceridemia and hypercholesterolemia-induced animals; assay: Triglyceride concentrations in hypertriglyceridemia and hypercholesterolemia-induced animals (Example 2); assay type: in vivo, New Zealand White rabbits; conditions: 4 weeks oral once per day, Compound of Formula 1 20 mg/kg/day and/or olmesartan medoxomil 3 mg/kg/day
Excerpt: as §1, with “3. […]” for “3.”

Structure (SMILES) | average HDL cholesterol concentrations, 4 weeks [1] | Percent increase of HDL cholesterol level (%) [1] | average triglyceride concentrations, 4 weeks ([2]; 0.5% cholesterol, 14% coconut oil diet, n=4-7) | Percent inhibition of triglyceride in the blood (%) ([2]; in comparison with the G2 group)
COc1cc(F)c(C(C)C)cc1-c1ccc(C(F)(F)F)cc1CN1C(=O)O[C@H](c2cc(C(F)(F)F)cc(C(F)(F)F)c2)[C@@H]1C [Compound of Formula 1, (4S,5R)-5-[3,5-bis(trifluoromethyl)phenyl]-3-({2-[4-fluoro-2-methoxy-5-(propan-2-yl)phenyl]-5-(trifluoromethyl)phenyl}methyl)-4-methyl-1,3-oxazolidin-2-one] | 168.5 mg/dL | 37.9% |  | 
CCCc1nc(C(C)(C)O)c(C(=O)OCc2oc(=O)oc2C)n1Cc1ccc(-c2ccccc2-c2nnn[nH]2)cc1 [Olmesartan medoxomil] | 125.3 mg/dL | 2.6% | 217.4 mg/dL | 33.4%

Reference: patent US9724336B2, “Pharmaceutical composition for preventing or treating hyperlipidemia” (priority 2011, dated 2017)
